Data published in patent publication US5607926A, “Cephalosporin antibiotics” (Microcide Pharmaceuticals, Inc., priority 1995, dated 1997).
≈ marks a conversion by molar mass, not a printed value. Like-named read-outs stand apart in the source and are kept apart here.

Experiments:
Type in all cases: cell-based
[1] = system: S. epidermidis ATCC 31432; test: In vitro antibacterial evaluation, MIC by agar dilution, S. epidermidis ATCC 31432; conditions: Staphylococcus epidermidis, ATCC31432; S. epidermidis ATCC 31432; read-out: MIC
Experimental: (§1) The compounds of the invention were evaluated against several β-lactamresistant bacteria strains by determining the minimum inhibitory concentration (MIC, μg/ml) of each compound with respect to each strain. The MIC, the lowest concentration of antibiotic which inhibits growth of the test organism, was determined by the agar dilution method.
(§2) To determine the MIC for bacterial isolates, the test compound was incorporated in a series of two-fold dilutions into liquified Mueller-Hinton agar. Upon solidification, a number of different bacterial strains were spot inoculated with a replicating device onto the agar surface. […] The procedures used in these studies have been standardized by the National Committee for Clinical Laboratory Standards (NCCLS), as per the NCCLS publication entitled METHODS FOR DILUTION ANTIMICROBIAL SUSCEPTIBILITY TESTS (1991), which is incorporated herein by reference.
(§3) Aliquots of antimicrobial agents were prepared in phosphate buffered saline (PBS) at pH 7.2. Tween 20 or DMSO was used as a solubilizing vehicle as needed. Standard methods of vortexing, sonicating and gentle heat were used to facilitate solubilizing the test agent. Typically, the concentration of the stock solution was 10× that of the highest drug concentration tested. A 1.28 mg/mL stock solution was used with a subsequent highest working concentration of 128 μg/mL. Serial two-fold dilutions were done through ≤0.25 μg/mL. Each drug level was tested in duplicate. Two-fold drug dilutions were done in sterile 50 mL tubes with a final drug volume of 5 mL. Upon the addition of 45 mL of molten agar, a 10-fold dilution resulted. Two, 25 mL. plates were then poured into 15×150 mm square Petri plates with grids and allowed to harden.
(§4) A control plate with a reference drug, either cefotaxime, vancomycin or imipenem, was used as the positive growth control. Stock concentrations of reference antibiotics were prepared and frozen at -80° C. Upon preparation, the control plates were sealed and stored in the refrigerator for up to 1 week prior to use; however, imipenem control plates had to be prepared just prior to use. All test plates were used within 24 hours of preparation.
(§5) Satisfactory results were obtained where the inoculum contained about 10^4 colony forming units (cfu) ±0.5 logs. Starting with pure cultures of the test isolates on agar plates, a few isolated colonies were transferred to a tube of nutrient broth and allowed to grow 4-6 hours at 35°-36° C. to reach log-phase growth. Dropwise addition of the broth culture to PBS was done to match a 0.5 McFarland turbidity standard equal to 10^8 cfu/mL. This was further diluted ten-fold in PBS to reach a working inoculum concentration of 10^7 cfu/mL. When 1 μL of the working inoculum was applied to the agar surface a concentration of about 10^4 cfu per spot was obtained.
(§6) Disposable sterile 1 μL loops were used to inoculate test plates, with each isolate in a designated grid on the agar plate. An alternate method of inoculation involved the use of a replica plater, a device with 48 steel pins allowing the simultaneous inoculation of multiple isolates. After the spots had dried, the plates were incubated at 35°-36° C. for 16-20 hours. Endpoints were assessed as the minimum inhibitory concentration (MIC) of antimicrobial agent.

[2] = system: S. aureus 76 (Meth^R)(lac^+); test: In vitro antibacterial evaluation, MIC by agar dilution, S. aureus 76; conditions: Staphylococcus aureus, read-out: MIC
Experimental: as §1, §2, §3, §4, §5, §6

S. haemolyticus (Meth^R) = test: In vitro antibacterial evaluation, MIC by agar dilution, S. haemolyticus; conditions: Staphylococcus haemolyticus, read-out: MIC
Experimental: as §1, §2, §3, §4, §5, §6

E. faecium ATCC 35667 = test: In vitro antibacterial evaluation, MIC by agar dilution, E. faecium ATCC 35667; conditions: Enterococcus faecium, ATCC35667, read-out: MIC
Experimental: as §1, §2, §3, §4, §5, §6

E. coli ATCC 25922 = test: In vitro antibacterial evaluation, MIC by agar dilution, E. coli ATCC 25922; conditions: Escherichia coli, ATCC25922, read-out: MIC
Experimental: as §1, §2, §3, §4, §5, §6

S. aureus ATCC 29213 = test: In vitro antibacterial evaluation, MIC by agar dilution, S. aureus ATCC 29213; conditions: Staphylococcus aureus, ATCC29213
Experimental: as §1, §2, §3, §4, §5, §6

[3] = system: S. aureus Col8A (Meth^S)(lac^-); test: In vitro antibacterial evaluation, MIC by agar dilution, S. aureus Col8A; conditions: Staphylococcus aureus
Experimental: as §1, §2, §3, §4, §5, §6
The novel agents of this invention are notable for their enhanced activity against S. aureus Col and Enterococci (E. faecium and E. faecalis). The S. aureus Col strain is a high-level PBP2a producer, whereas S. aureus Col 8A, its isogenic partner, lacks PBP2a. […] Thus, the compounds of the present invention are effective against PBP2a-producing bacteria.

E. faecalis ATCC 29212 = test: In vitro antibacterial evaluation, MIC by agar dilution, E. faecalis ATCC 29212; conditions: Enterococcus faecalis, ATCC29212; E. faecalis ATCC 29212; read-out: MIC
Experimental: as §1, §2, §3, §4, §5, §6

P. aeruginosa ATCC 27853 = test: In vitro antibacterial evaluation, MIC by agar dilution, P. aeruginosa ATCC 27853; conditions: Pseudomonas aeruginosa, ATCC27853, read-out: MIC
Experimental: as §1, §2, §3, §4, §5, §6

[4] = S. aureus ATCC 29213, read-out: MIC

O=C(Cc1ccccc1)N[C@@H]1C(=O)N2C(C(=O)O)=C(Sc3cc(Cl)ccc3Cl)CS[C@H]12 [Cmpd 16, (7R)-7-[(Phenylacetyl)amino]-3-(2,5-dichlorophenylthio)-3-cephem-4-carboxylic acid]
MIC [1]: < 0.5 µg/mL
MIC [2]: 4 µg/mL (≈ 8.07 µM)
MIC (S. haemolyticus (Meth^R)): 16 µg/mL (≈ 32.3 µM)
MIC (E. faecium ATCC 35667): 4 µg/mL (≈ 8.07 µM)
MIC (E. coli ATCC 25922): > 16 µg/mL

CCCCCC(=O)N[C@@H]1C(=O)N2C(C(=O)O)=C(Sc3ccnn3-c3ccccc3)CS[C@H]12 [Cmpd 109, (7R)-7-[(hexanoyl)amino]-3-(1-N-phenylpyrazol-5-ylthio)-3-cephem-4-carboxylic acid]
MIC (S. aureus ATCC 29213): 0.125 µg/mL (≈ 0.264 µM)
MIC [2]: 16 µg/mL (≈ 33.9 µM)
MIC [3]: 0.125 µg/mL (≈ 0.264 µM)
MIC (S. haemolyticus (Meth^R)): 32 µg/mL (≈ 67.7 µM)
MIC (E. faecium ATCC 35667): 4 µg/mL (≈ 8.46 µM)
MIC (E. faecalis ATCC 29212): 4 µg/mL (≈ 8.46 µM)
MIC (E. coli ATCC 25922): > 32 µg/mL
MIC (P. aeruginosa ATCC 27853): > 32 µg/mL

O=C(Cc1ccco1)N[C@@H]1C(=O)N2C(C(=O)O)=C(Sc3ccnn3-c3ccccc3)CS[C@H]12 [Cmpd 111, (7R)-7-[(2-furylacetyl)amino]-3-(1-N-phenylpyrazol-5-ylthio)-3-cephem-4-carboxylic acid]
MIC (S. aureus ATCC 29213; [4]): 0.5 µg/mL (≈ 1.04 µM)
MIC [2]: 16 µg/mL (≈ 33.2 µM)
MIC [3]: 0.25 µg/mL (≈ 0.518 µM)
MIC (S. haemolyticus (Meth^R)): 32 µg/mL (≈ 66.3 µM)
MIC (E. faecium ATCC 35667): 4 µg/mL (≈ 8.29 µM)
MIC (E. faecalis ATCC 29212): 4 µg/mL (≈ 8.29 µM)
MIC (E. coli ATCC 25922): > 32 µg/mL
MIC (P. aeruginosa ATCC 27853): > 32 µg/mL

O=C(Cc1ccccc1)N[C@@H]1C(=O)N2C(C(=O)O)=C(Sc3ccnn3-c3cccc([N+](=O)[O-])c3)CS[C@H]12 [Cmpd 113, (7R)-7-[(Phenylacetyl)amino]-3-(1-N-(3-nitrophenyl)pyrazol-5-ylthio)-3-cephem-4-carboxylic acid]
MIC (S. aureus ATCC 29213): 0.125 µg/mL (≈ 0.233 µM)
MIC [2]: 16 µg/mL (≈ 29.8 µM)
MIC [3]: 0.125 µg/mL (≈ 0.233 µM)
MIC (S. haemolyticus (Meth^R)): > 32 µg/mL
MIC (E. faecium ATCC 35667): 4 µg/mL (≈ 7.44 µM)
MIC (E. faecalis ATCC 29212): 1 µg/mL (≈ 1.86 µM)
MIC (E. coli ATCC 25922): > 32 µg/mL
MIC (P. aeruginosa ATCC 27853): > 32 µg/mL

COc1ccc(-n2nccc2SC2=C(C(=O)O)N3C(=O)[C@@H](NC(=O)Cc4ccccc4)[C@H]3SC2)cc1 [Cmpd 114, (7R)-7-[(Phenylacetyl)amino]-3-(1-N-(4-methoxyphenyl)pyrazol-5-ylthio)-3-cephem-4-carboxylic acid]
MIC (S. aureus ATCC 29213; [4]): 0.25 µg/mL (≈ 0.478 µM)
MIC [2]: 16 µg/mL (≈ 30.6 µM)
MIC [3]: 0.125 µg/mL (≈ 0.239 µM)
MIC (S. haemolyticus (Meth^R)): 32 µg/mL (≈ 61.2 µM)
MIC (E. faecium ATCC 35667): 2 µg/mL (≈ 3.83 µM)
MIC (E. faecalis ATCC 29212): 1 µg/mL (≈ 1.91 µM)
MIC (E. coli ATCC 25922): > 32 µg/mL
MIC (P. aeruginosa ATCC 27853): > 32 µg/mL

O=C(Cc1cccs1)N[C@@H]1C(=O)N2C(C(=O)O)=C(Sc3ccnn3-c3ccccc3)CS[C@H]12 [Cmpd 116, (7R)-7-[(2-thienylacetyl)amino]-3-(1-N-phenylpyrazol-5-ylthio)-3-cephem-4-carboxylic acid]
MIC (S. aureus ATCC 29213; [4]): 0.25 µg/mL (≈ 0.501 µM)
MIC [2]: 16 µg/mL (≈ 32.1 µM)
MIC [3]: 0.125 µg/mL (≈ 0.251 µM)
MIC (S. haemolyticus (Meth^R)): 16 µg/mL (≈ 32.1 µM)
MIC (E. faecium ATCC 35667): 2 µg/mL (≈ 4.01 µM)
MIC (E. faecalis ATCC 29212): 2 µg/mL (≈ 4.01 µM)
MIC (E. coli ATCC 25922): > 32 µg/mL
MIC (P. aeruginosa ATCC 27853): > 32 µg/mL

COc1cccc(-n2nccc2SC2=C(C(=O)O)N3C(=O)[C@@H](NC(=O)Cc4ccccc4)[C@H]3SC2)c1 [Cmpd 117, (7R)-7-[(Phenylacetyl)amino]-3-(1-N-(3-methoxyphenyl)pyrazol-5-ylthio)-3-cephem-4-carboxylic acid]
MIC (S. aureus ATCC 29213; [4]): 0.25 µg/mL (≈ 0.478 µM)
MIC [2]: 16 µg/mL (≈ 30.6 µM)
MIC [3]: 0.125 µg/mL (≈ 0.239 µM)
MIC (S. haemolyticus (Meth^R)): 32 µg/mL (≈ 61.2 µM)
MIC (E. faecium ATCC 35667): 1 µg/mL (≈ 1.91 µM)
MIC (E. faecalis ATCC 29212): 2 µg/mL (≈ 3.83 µM)
MIC (E. coli ATCC 25922): > 32 µg/mL
MIC (P. aeruginosa ATCC 27853): > 32 µg/mL
